Key:
[1] = system: Human osteosarcoma U2OS cells; assay: Assay to measure lysosome and autolysosome (acidic vesicle) formation in U2OS cells; type: cell-based; details: Homo sapiens, concentration of 0.8 μM, read-out: Activity (percentage increase in acidic vesicle formation over the DMSO-treated control)
Protocol: Lysosomes play a fundamental role in the autophagic pathway by fusing with autophagosomes and creating ‘autolysosomes’ in order to digest their contents. Stimulation of lysosome and autolysosome formation by a compound is indicative of a stimulation of autophagy. The ability of compounds to stimulate lysosome and autolysosome formation, and thus autophagy, in live cells was assessed via fluorescent microscopy using various fluorescent stains for labelling and tracking acidic organelles (including lysosomes and autolysosomes) such as: LysoView™ 650 (70059 and 70059-T, Biotium), Lyso View™633 (70058 and 70058-T, Biotium) and LysoTracker™ Deep Red (L12492, ThermoFisher Scientific). The cellular phenotype was quantitatively assessed for the induction of acidic vesicle formation and compared to a non-treated control, thus providing a measure of the ability of the compound under investigation to stimulate autophagy.
Representative procedure using LysoView™ 633 dye or LysoTracker™ Deep Red dye: Human osteosarcoma U2OS cells (40,000 cells/well) were seeded in a 24 well glass bottom plate (Sensoplate, Greiner Bio-One) and were incubated overnight in a humidified atmosphere at 37° C. and 5% CO2. Cells were grown in DMEM (Gibco) supplemented with 10% Fetal Bovine Serum (FBS) and 100 units/ml penicillin and 100 μg/ml streptomycin (Invitrogen). After the attachment period, cells were treated with different compounds of interest (at various concentrations in DMSO) or DMSO (non-treated control) in cell culture medium and were incubated for 24 hours. Compound-containing medium was removed and cells were incubated with pre-warmed cell culture medium containing 1× Lyso View™ 633 (70058 and 70058-T, Biotium) or 50 nM LysoTracker™ Deep Red (L12492, ThermoFisher Scientific) for 45 minutes at 37° C. Finally, cell nuclei were stained for 10 minutes using Hoechst 33342 (1 μg/mL) and then the medium was replaced with fresh medium. The 24 well plate was then fitted into a heated stage on the microscope and cells maintained at 37° C. Images were captured using appropriate filter set for Cy5 and DAPI detection with the EVOS M7000 Microscope (ThermoFisher Scientific). The cellular phenotype was visually assessed for the induction of acidic vesicle formation relative to the non-treated control; multiple images were acquired and analysed using ImageJ or Cell Profiler.

[2] = system: C57BL/6JRj mice injured by intra-nigral injections of α-syn combined with conduritol B epoxide; assay: Mouse model of Parkinson's disease (intra-nigral α-syn plus CBE); type: in vivo; details: 30 mg/kg per os twice a day
Excerpt: This model (run by Neuro-Sys SAS, France) uses C57BL/6JRj mice injured by intra-nigral injections of a solution containing protofibrils of alpha-synuclein (α-syn, precisely quantified by automatic Western Blot) and combined with pharmacological inhibition of GBA by conduritol B epoxide, in aged mice. The model reproduces essential neuropathological features of PD (e.g. loss of dopaminergic neurons, α-syn aggregation, endoplasmic reticulum [ER] stress) and the neuroinflammatory response (microglia activation and release of proinflammatory cytokines) in the nigra striata area.
Animal characteristics: • Type of animal: C57BL/6JRj (Male) • Age: 18 months old • Supplier: Janvier Labs • Animal number: 7 mice per group • Acclimation and clinical signs: Animals arrived on site 7 days (one week) before the experiment to allow optimal acclimation.
• Test compound dose and administration: 30 mg/kg, per os (gavage or drinking water), twice a day • Test compound treatment: The test compound was solubilized (vehicle=water), aliquoted and stored at −20° C. Aliquots were thawed overnight at 4° C. and given twice a day (morning and afternoon). Treatment started on the day of the stereotaxic injections of α-syn preparation (Day 0). Treatment was administrated until the last day of the experiment (Day 28; =day of dissection). • CBE dose and administration: 50 mg/kg, Intraperitoneal (i.p.), twice a day. • CBE treatment: Administration of CBE (vehicle=saline [NaCl 0.9%] started on the day of the stereotaxic injections of α-syn preparation (Day 0). Treatment was administrated until the last day of the experiment (Day 28; =day of dissection), • Untreated control: vehicle (saline; i.p.) administered twice a day, […]
For overall evaluation and body mass, mice were observed daily, and body mass was monitored prior the morning drug administration. […]

[3] = day 28, compared to the α-syn/CBE injured group

## CCN1CCC(N(C)C(=O)c2csc(-c3cnn(-c4ccccc4)c3)n2)CC1 [Compound 196, N-(1-ethylpiperidin-4-yl)-N-methyl-2-(1-phenyl-1H-pyrazol-4-yl)-1,3-thiazole-4-carboxamide]
[1]
  activation at 0.8 µM: 30 to 50%
[2]; after 4 weeks of treatment
  body mass of the animals: did not significantly modify
[2]; [3]
  decrease in the number of Iba1-positive microglial cells in the SNpc: > 15%
  increase in the number of dopaminergic TH positive neurons in the SNpc: > 60%

— US20250034127A1, “AUTOPHAGY INDUCING COMPOUNDS AND USES THEREOF, IN PARTICULAR FOR DISEASES OF THE CNS” (Samsara Therapeutics Inc., priority 2021, published 2025)
